In ChEMBL document CHEMBL5696443 (Clin Cancer Res, 2016):
The source made the active and inactive calls. The calls are words filed in the database; no cut-off is given here.

Key:
[1] = target: cGMP-dependent protein kinase 2 (Homo sapiens) (UniProt Q13237); test: Inhibition of human PRKG2 at 1 uM using LRRASLG as substrate in presence of [gamma33P]-ATP by HotSpot assay relative to control
[2] = target: Serine/threonine-protein kinase TBK1 (Homo sapiens) (UniProt Q9UHD2); test: Inhibition of human TBK1 at 1 uM using MBP as substrate in presence of [gamma33P]-ATP by HotSpot assay relative to control
[3] = target: Serine/threonine-protein kinase D1 (Homo sapiens, UniProt Q15139); test: Inhibition of human PRKD1 using KKLNRTLSVA as substrate in presence of [gamma33P]-ATP by HotSpot assay
[4] = target: Proto-oncogene tyrosine-protein kinase receptor Ret (Homo sapiens, UniProt P07949, V804M); test: Inhibition of human RET V804M mutant using RRRRRRRRRRRVYSTDYYRLFNPS as substrate in presence of [gamma33P]-ATP by HotSpot assay
[5] = target: Insulin-like growth factor 1 receptor (Homo sapiens, UniProt P08069); test: Inhibition of human IGF1R using KKKSPGEYVNIEFG as substrate in presence of [gamma33P]-ATP by HotSpot assay
[6] = target: Eukaryotic elongation factor 2 kinase (Homo sapiens) (UniProt O00418); test: Inhibition of human EEF2K at 1 uM using RKKFGESEKTKTKEFL as substrate in presence of [gamma33P]-ATP by HotSpot assay relative to control
[7] = target: Tyrosine-protein kinase Fes/Fps (Homo sapiens, UniProt P07332); test: Inhibition of human FES using poly (Glu, Tyr)4:1 as substrate in presence of [gamma33P]-ATP by HotSpot assay
[8] = target: Tyrosine-protein kinase BTK (Homo sapiens, UniProt Q06187); test: Inhibition of human BTK using poly (Glu, Tyr)4:1 as substrate in presence of [gamma33P]-ATP by HotSpot assay
[9] = target: Dual specificity tyrosine-phosphorylation-regulated kinase 1A (Homo sapiens) (UniProt Q13627); test: Inhibition of human DYRK1A at 1 uM using RRRFRPASPLRGPPK as substrate in presence of [gamma33P]-ATP by HotSpot assay relative to control
[10] = target: RAC-gamma serine/threonine-protein kinase (Homo sapiens) (UniProt Q9Y243); test: Inhibition of human AKT3 at 1 uM using KGSGSGRPRTSSFAEG as substrate in presence of [gamma33P]-ATP by HotSpot assay relative to control
[11] = target: Serine/threonine-protein kinase PAK 2 (Homo sapiens) (UniProt Q13177); test: Inhibition of human PAK2 at 1 uM using RRRLSFAEPG as substrate in presence of [gamma33P]-ATP by HotSpot assay relative to control
[12] = target: Protein kinase C beta type (Homo sapiens) (UniProt P05771); test: Inhibition of human PRKCB at 1 uM using ERMRPRKRQGSVRRRV as substrate in presence of [gamma33P]-ATP by HotSpot assay relative to control
[13] = target: Mitogen-activated protein kinase kinase kinase 9 (Homo sapiens, UniProt P80192); test: Inhibition of human MAP3K9 using casein as substrate in presence of [gamma33P]-ATP by HotSpot assay
[14] = target: cGMP-dependent protein kinase 1 (Homo sapiens, UniProt Q13976); test: Inhibition of human PRKG1 using LRRASLG as substrate in presence of [gamma33P]-ATP by HotSpot assay
in vitro = details: mouse, BaF3 cells
DEL = details: time 72 hrs
[15] = target: Tyrosine-protein kinase Mer (Homo sapiens, UniProt Q12866); test: Inhibition of human MERTK using poly (Glu, Tyr)4:1 as substrate in presence of [gamma33P]-ATP by HotSpot assay
[16] = system: EML4-ALK (Homo sapiens), Q9UM73+Q9HC35 [I1171N]; details: BaF3, time 3-5 weeks
[17] = target: Serine/threonine-protein kinase 26 (Homo sapiens) (UniProt Q9P289); test: Inhibition of human STK26 at 1 uM using MBP as substrate in presence of [gamma33P]-ATP by HotSpot assay relative to control
[18] = target: Death-associated protein kinase 1 (Homo sapiens) (UniProt P53355); test: Inhibition of human DAPK1 at 1 uM using KKLNRTLSFAEPG as substrate in presence of [gamma33P]-ATP by HotSpot assay relative to control
BaF3 = test: Antitumor activity against mouse BaF3 cells expressing native EML4-ALK implanted in mouse assessed as tumor regression at 25 mg/kg, po administered once daily and measured after 8 days relative to control; format: functional; details: time 8 day
KARPAS-299 = test: Antitumor activity against ALK positive human KARPAS-299 cells xenografted in SCID beige mouse assessed as tumor growth inhibition at 25 mg/kg, po administered once daily for 14 days relative to control; format: functional; details: time 14 day
[19] = target: Casein kinase I isoform epsilon (Homo sapiens) (UniProt P49674); test: Inhibition of human CK1epsilon at 1 uM using KRRRAL[pS]VASLPGL as substrate in presence of [gamma33P]-ATP by HotSpot assay relative to control
[20] = target: Mitogen-activated protein kinase kinase kinase 14 (Homo sapiens) (UniProt Q99558); test: Inhibition of human MAP3K14 at 1 uM using MBP as substrate in presence of [gamma33P]-ATP by HotSpot assay relative to control
[21] = system: EML4-ALK (Homo sapiens), Q9UM73+Q9HC35 [L1152R]; details: BaF3, dose 500.0 nmol/L, time 3-5 weeks
[22] = target: G protein-coupled receptor kinase 3 (Homo sapiens) (UniProt P35626); test: Inhibition of human ADRBK2 at 1 uM using casein as substrate in presence of [gamma33P]-ATP by HotSpot assay relative to control
[23] = system: EML4-ALK (Homo sapiens), Q9UM73+Q9HC35 [E1210K]; details: BaF3, dose 500.0 nmol/L, time 3-5 weeks
[24] = target: Serine/threonine-protein kinase B-raf (Homo sapiens) (UniProt P15056); test: Inhibition of human BRAF at 1 uM using MEK1 as substrate in presence of [gamma33P]-ATP by HotSpot assay relative to control
[25] = target: RAC-beta serine/threonine-protein kinase (Homo sapiens) (UniProt P31751); test: Inhibition of human AKT2 at 1 uM using KGSGSGRPRTSSFAEG as substrate in presence of [gamma33P]-ATP by HotSpot assay relative to control
[26] = Average plasma concentration in CB-17/SCID mouse at 25 mg/kg administered once a day for 4 days by LC-MS/MS analysis; format: ADME, organism-based; details: in vivo, 96 h, time 4 day

Eukaryotic elongation factor 2 kinase (Homo sapiens), sequence (O00418 whole entry): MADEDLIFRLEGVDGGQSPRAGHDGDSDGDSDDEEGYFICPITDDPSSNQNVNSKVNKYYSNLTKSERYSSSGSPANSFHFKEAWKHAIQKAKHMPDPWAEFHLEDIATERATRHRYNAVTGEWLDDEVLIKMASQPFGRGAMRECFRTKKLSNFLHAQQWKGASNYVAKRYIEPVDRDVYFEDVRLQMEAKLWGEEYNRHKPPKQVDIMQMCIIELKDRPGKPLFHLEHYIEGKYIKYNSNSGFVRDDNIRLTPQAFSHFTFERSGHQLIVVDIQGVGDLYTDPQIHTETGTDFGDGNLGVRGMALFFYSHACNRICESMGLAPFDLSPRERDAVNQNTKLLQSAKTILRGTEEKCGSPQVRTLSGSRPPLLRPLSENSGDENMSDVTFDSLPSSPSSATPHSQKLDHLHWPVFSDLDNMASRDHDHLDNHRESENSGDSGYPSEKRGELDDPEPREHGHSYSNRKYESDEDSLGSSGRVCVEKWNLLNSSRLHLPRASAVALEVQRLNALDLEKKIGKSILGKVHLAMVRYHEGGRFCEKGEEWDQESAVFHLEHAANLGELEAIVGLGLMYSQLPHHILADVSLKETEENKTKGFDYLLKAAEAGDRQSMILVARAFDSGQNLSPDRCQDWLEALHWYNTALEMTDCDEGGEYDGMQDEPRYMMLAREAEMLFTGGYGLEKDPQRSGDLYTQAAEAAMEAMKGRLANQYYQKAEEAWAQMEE
Casein kinase I isoform epsilon (Homo sapiens), sequence (P49674 whole entry, looked up, canonical isoform): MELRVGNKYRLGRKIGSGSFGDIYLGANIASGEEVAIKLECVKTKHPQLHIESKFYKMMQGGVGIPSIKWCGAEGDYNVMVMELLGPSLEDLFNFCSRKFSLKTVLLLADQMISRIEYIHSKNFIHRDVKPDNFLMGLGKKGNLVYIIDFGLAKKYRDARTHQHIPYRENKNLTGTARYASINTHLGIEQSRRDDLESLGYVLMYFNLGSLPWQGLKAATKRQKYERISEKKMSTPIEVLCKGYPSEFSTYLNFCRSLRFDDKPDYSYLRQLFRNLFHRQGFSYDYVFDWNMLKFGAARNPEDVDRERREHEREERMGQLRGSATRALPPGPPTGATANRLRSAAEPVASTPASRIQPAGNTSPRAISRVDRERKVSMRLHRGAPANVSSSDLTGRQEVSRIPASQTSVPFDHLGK
Serine/threonine-protein kinase TBK1 (Homo sapiens), sequence (Q9UHD2 whole entry): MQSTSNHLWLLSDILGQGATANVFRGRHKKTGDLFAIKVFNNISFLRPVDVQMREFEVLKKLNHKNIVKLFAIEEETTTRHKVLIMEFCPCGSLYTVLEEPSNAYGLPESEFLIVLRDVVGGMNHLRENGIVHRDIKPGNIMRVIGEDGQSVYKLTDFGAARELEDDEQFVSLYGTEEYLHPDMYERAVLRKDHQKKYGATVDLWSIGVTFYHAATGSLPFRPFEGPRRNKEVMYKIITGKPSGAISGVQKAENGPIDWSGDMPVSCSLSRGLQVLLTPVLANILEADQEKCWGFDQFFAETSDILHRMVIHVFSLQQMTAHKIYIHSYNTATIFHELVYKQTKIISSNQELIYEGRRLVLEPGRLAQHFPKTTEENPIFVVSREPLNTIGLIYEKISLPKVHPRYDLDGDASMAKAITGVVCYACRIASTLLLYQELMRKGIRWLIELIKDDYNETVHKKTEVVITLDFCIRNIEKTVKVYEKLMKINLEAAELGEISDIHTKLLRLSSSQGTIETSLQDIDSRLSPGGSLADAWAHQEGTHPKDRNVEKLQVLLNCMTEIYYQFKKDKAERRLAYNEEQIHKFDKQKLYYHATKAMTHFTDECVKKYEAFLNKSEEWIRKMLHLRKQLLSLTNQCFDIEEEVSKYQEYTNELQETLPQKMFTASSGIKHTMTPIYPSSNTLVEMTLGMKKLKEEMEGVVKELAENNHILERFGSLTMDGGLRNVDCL
RAC-gamma serine/threonine-protein kinase (Homo sapiens), sequence (Q9Y243 whole entry): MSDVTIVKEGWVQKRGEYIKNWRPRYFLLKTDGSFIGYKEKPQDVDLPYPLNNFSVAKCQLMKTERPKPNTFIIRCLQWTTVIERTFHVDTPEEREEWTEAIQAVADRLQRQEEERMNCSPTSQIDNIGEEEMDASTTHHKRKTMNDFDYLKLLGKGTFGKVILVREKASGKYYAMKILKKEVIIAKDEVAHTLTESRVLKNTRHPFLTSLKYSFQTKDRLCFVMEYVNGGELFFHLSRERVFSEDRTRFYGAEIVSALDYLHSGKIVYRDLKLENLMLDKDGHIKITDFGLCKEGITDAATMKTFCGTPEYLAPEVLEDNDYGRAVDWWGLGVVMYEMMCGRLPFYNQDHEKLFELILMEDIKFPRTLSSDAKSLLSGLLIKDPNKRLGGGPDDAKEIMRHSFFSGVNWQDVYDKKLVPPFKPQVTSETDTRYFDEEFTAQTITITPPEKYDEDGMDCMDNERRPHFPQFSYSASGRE
Proto-oncogene tyrosine-protein kinase receptor Ret, sequence (P07949 29-1114 V804M limits assumed): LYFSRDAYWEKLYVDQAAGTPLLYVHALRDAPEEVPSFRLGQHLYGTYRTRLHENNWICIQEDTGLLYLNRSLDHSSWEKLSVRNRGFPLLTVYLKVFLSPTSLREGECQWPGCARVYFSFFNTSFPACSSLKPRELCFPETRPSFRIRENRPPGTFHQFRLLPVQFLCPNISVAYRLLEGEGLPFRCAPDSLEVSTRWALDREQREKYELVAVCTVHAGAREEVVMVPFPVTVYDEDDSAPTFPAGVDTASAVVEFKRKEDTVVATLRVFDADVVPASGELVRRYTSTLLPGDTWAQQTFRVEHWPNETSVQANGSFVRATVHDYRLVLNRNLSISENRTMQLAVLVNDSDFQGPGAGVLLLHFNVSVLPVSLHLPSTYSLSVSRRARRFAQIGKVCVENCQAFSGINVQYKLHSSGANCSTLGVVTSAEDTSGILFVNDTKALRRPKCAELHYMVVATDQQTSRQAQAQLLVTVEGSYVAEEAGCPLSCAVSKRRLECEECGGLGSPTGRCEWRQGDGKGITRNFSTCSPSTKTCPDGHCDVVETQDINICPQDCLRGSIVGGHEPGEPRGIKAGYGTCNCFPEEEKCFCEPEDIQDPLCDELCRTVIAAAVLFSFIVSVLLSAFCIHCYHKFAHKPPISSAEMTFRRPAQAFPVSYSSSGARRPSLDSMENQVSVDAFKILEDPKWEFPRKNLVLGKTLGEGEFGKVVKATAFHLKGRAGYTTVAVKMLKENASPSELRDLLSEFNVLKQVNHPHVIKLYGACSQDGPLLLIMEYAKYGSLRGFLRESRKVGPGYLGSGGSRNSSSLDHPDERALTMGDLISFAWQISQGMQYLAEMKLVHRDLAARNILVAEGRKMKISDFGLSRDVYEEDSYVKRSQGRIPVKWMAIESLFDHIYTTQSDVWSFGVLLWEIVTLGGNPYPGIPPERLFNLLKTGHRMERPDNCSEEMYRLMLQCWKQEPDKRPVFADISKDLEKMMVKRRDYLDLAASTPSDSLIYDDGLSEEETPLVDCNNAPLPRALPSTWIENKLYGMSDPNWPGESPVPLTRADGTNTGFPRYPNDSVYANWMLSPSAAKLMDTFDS
G protein-coupled receptor kinase 3 (Homo sapiens), sequence (P35626 whole entry): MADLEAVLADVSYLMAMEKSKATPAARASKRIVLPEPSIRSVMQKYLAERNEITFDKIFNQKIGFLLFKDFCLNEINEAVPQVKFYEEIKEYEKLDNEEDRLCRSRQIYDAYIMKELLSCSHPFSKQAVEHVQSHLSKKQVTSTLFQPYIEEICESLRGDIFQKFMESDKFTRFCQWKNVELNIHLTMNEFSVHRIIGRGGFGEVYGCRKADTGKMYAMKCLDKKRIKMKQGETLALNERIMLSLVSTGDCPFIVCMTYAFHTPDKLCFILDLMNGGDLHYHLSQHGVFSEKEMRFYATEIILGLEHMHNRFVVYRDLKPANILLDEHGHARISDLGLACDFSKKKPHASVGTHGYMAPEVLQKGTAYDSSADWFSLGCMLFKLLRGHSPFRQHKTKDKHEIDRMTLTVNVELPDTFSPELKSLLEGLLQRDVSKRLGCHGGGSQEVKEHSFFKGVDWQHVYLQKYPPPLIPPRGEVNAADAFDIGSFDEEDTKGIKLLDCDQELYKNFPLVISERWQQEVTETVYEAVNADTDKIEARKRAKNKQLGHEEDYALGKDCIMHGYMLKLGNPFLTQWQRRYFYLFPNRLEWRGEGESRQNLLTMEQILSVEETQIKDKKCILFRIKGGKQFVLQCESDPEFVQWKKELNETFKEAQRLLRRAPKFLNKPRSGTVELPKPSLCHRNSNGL
Mitogen-activated protein kinase kinase kinase 14 (Homo sapiens), sequence (Q99558 whole entry, looked up): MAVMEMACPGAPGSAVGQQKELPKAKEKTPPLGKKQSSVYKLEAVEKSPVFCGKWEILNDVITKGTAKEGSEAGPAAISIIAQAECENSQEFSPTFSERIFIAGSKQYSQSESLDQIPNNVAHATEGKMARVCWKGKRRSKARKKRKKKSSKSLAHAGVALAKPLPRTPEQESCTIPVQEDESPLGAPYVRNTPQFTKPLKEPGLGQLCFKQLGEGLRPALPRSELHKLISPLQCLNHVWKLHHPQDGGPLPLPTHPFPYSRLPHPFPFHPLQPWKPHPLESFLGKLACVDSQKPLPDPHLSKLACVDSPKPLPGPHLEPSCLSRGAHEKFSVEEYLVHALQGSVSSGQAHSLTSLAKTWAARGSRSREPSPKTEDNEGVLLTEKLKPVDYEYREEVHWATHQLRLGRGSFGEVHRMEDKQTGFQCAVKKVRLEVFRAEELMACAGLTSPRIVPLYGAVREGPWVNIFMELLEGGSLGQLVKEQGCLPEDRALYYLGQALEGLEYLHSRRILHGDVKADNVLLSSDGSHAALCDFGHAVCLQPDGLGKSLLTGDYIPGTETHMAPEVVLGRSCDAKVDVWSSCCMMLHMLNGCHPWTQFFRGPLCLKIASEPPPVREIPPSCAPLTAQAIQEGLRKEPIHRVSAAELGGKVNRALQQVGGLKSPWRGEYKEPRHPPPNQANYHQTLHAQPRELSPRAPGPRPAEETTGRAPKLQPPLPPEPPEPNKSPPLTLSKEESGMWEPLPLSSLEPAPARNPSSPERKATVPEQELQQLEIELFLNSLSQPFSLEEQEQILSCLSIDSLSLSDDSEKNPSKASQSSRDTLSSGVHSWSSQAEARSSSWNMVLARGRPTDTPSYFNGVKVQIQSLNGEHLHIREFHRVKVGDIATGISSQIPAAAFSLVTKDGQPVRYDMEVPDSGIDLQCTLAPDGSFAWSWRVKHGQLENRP

## COc1cc(N2CCC(N3CCN(C)CC3)CC2)ccc1Nc1ncc(Cl)c(Nc2ccccc2P(C)(C)=O)n1 [BRIGATINIB]
[1]
  inhibition: < 90%
[2]
  inhibition: < 90%
[3]
  IC50: 197 nM
[4]
  IC50: 22 nM
[5]
  IC50: 73 nM
[6]
  inhibition: < 90%
[7]
  IC50: 3.5 nM
[8]
  IC50: 674 nM
[9]
  inhibition: < 90%
[10]
  inhibition: < 90%
[11]
  inhibition: < 90%
[12]
  inhibition: < 90%
[13]
  IC50: 218 nM
[14]
  IC50: > 1000 nM
In vitro
  IC50 at 72 h: 3210 nM
DEL
  GI50: 31 nM
[15]
  IC50: > 1000 nM
[16]
  IC90: 278 nM
[17]
  inhibition: < 90%
[18]
  inhibition: < 90%
BaF3
  Activity: 100%
KARPAS-299
  TGI: 87%
[19]
  inhibition: < 90%
[20]
  inhibition: < 90%
[21]
  inhibition: Active
[22]
  inhibition: < 90%
[23]
  inhibition: Active
[24]
  inhibition: < 90%
[25]
  inhibition: < 90%
[26]
  Cave: 844 nM
